Literature values, collected in patent EP2397122A2, “Formulations of neramexane dosage forms” (Merz Pharma GmbH & Co. KGaA, priority 2004, dated 2006).

CC12CC3CC(C)(C1)CC(N)(C3)C2 [memantine, 1-amino-3,5-dimethyladamantane]
elimination half-life (T½) (man): 60 to 80 h
absolute bioavailability (oral administration in man): approximately 100%
